The test concerns the target T1, human GPR120 (Homo sapiens, UniProt Q5NUL3).
T1 construct: expressed in transfected cells; host or cells: CHOA12 cells or CHO-K1 cells, stably transfected
T1 sequence (Q5NUL3 1-361): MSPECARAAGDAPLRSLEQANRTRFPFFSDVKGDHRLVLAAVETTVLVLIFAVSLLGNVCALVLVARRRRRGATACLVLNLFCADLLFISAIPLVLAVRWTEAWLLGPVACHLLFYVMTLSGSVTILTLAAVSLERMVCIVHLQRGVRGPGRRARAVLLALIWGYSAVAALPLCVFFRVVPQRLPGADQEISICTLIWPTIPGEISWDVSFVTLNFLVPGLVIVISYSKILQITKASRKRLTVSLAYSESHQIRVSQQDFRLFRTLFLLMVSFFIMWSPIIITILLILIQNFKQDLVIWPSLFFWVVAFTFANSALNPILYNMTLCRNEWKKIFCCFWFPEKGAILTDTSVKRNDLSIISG
In words: GPR120 pERK AlphaScreen SureFire Assay (human GPR120 pERK assay). It is filed as cell-based. The conditions noted are these: CHO cells stably transfected with the short form of human GPR120 receptor. An excerpt:
GPR120 activity was monitored by measuring phosphorylation of ERK (pERK), since G protein receptors are known to activate the ERK signaling cascade either directly and/or through recruitment of arrestin that serves as a scaffold for downstream signaling events.
GPR120 pERK AlphaScreen SureFire Assay
The human and mouse GPR120-mediated intracellular phosphorylated ERK assays were established using CHOAl2 cells stably transfected with the short form of human or mouse GPR120 receptor. Cells were cultured in growth medium consisting of F-12 media (Invitrogen Cat. #11765) with 5% Charcoal/Dextran FBS (Invitrogen Cat. #12676-029), 500 μg/mL GENETICIN® (Life Technologies Cat. #10131-027) and 250 μg/mL Zeocin (Invitrogen Cat. #R250-01). Cells were cryo preserved at a concentration of 2×10^7 cells/mL, in 90% Charcoal/Dextran FBS and 10% DMSO, and frozen in liquid nitrogen at a low passage number.
For the pERK assay, 2×10^7 cells/mL cryopreserved human and mouse cells were thawed rapidly in a 37° C. water bath and added to a T-225 flask containing 50 mL growth medium. The flasks were placed in a tissue culture incubator overnight (37° C., 5% CO2). The next day, cells were harvested with trypsin (Gibco Cat. #25300-054), resuspended in serum-containing growth medium and counted using a Cellometer and volume adjusted to a concentration of 0.6×10^6cells/mL. Cells were plated into 384-well clear bottom tissue culture plates (BD Cat. #353962) at 50 μL/well, for a density of 30,000 cells/well using a MULTIDROP® and incubated for 16-18 hours (overnight) at 37° C. with 5% CO2. The next day, cells were serum starved in 30 μL of F-12 media without any serum or antibiotics for 2 hours at 37° C.
Test compounds were 3-fold, 11-point serially diluted in DMSO in a REMP assay plate (Matrix Cat. #4307) by Tecan and 5 μL was transferred into an ECHO source plate (Labcyte Cat. #LC-0200). Cells were then stimulated with 50 nL of compound dilutions using ECHO liquid handler for 7 minutes at 37° C. Compounds ranged from final assay concentrations of 33.33 μM to 0.56 nM.
The media was then dumped and cells lysed with 20 μL of 1× Lysis buffer from the AlphaScreen SureFire Phospho-ERK 1/2 Kit (Perkin Elmer Cat. #6760617M). The lysis buffer was diluted 5-fold with water before use. The plate was agitated on a shaker for 10 minutes after which 2 μL was transferred into a 384-well white proxiplate (Perkin Elmer Cat. #6008289). The SureFire assay reagent mix was prepared by mixing 60 parts Reaction Buffer, 10 parts Activation Buffer, 1 part Donor Beads, 1 part Acceptor Beads (Perkin Elmer Cat. #TGRES10K). 3.5 μL/well of this reagent mix was manually added to the proxiplate with a multichannel pipettor. Plates were spun down at 1000 rpm for 2 minutes, followed by light-protected incubation at room temperature for 2 hours. The plates were read on the Alpha-technology compatible Envision multilabel plate reader using AlphaScreen protocol according to manufacturer's specifications. The agonist effect of compounds was expressed as 100×(average sample-average blank)/(average total−average blank) where sample is the luminescence activity in the presence of test compound, blank is equal to the luminescence activity in the presence of DMSO control and the total is signal induced by 50 μM linolenic acid as reference compound. Activation data for the test compound over a range of concentrations was plotted as percentage activation of the test compound (100%=maximum response). After correcting for background, EC50 values were determined. The EC50 is defined as the concentration of test compound which produces 50% of the maximal response and was quantified using the 4 parameter logistic equation to fit the data.
The human and mouse GPR120-mediated intracellular phosphorylated ERK assays were also established using CHO-K1 cells stably transfected with the short form of human or mouse GPR120 receptor. […]
For orientation: Bead proximity is the source of the signal in Alpha formats.

Usually EC50 stands for the concentration needed to bring the measured effect to its halfway point. Low values mean an effect from little substance, high ones a need for much substance. For the compound `CC1(C)Cc2cc(Cl)cc(OCC34CCC(CCC(=O)O)(CC3)CC4)c2O1` [Example 15, 3-(4-(((5-Chloro-2,2-dimethyl-2,3-dihydrobenzofuran-7-yl)oxy)methyl)bicyclo[2.2.2]octan-1-yl)propanoic acid], the response was half-maximal at 1340 nM (EC50).

`N#Cc1cccc(OC23CCC(CCCC(=O)O)(CC2)CC3)c1` [Example 3, 4-(4-(3-Cyanophenoxy)bicyclo[2.2.2]octan-1-yl)butanoic acid] yielded a half-maximal effective concentration (EC50) of 1110 nM.

Turning to `O=C(O)CCC12CCC(OCc3cccc(Oc4ccccc4)c3)(CC1)CC2` [Example 5, 3-(4-(3-Phenoxy-benzyloxy)bicyclo[2.2.2]octan-1-yl)propanoic acid], the EC50 worked out at 430 nM.

As to `CC1(C)Cc2cc(Cl)cc(OCC34CCC(/C=C/C(=O)O)(CC3)CC4)c2O1` [Example 13, (E)-3-(4-(((5-Chloro-2,2-dimethyl-2,3-dihydrobenzofuran-7-yl)oxy)methyl)bicyclo[2.2.2]octan-1-yl)acrylic acid], the half-maximal effective concentration (EC50) turned out to be 2690 nM.

For the compound `CC(C)Oc1cc(F)cc(COC23CCC(CCC(=O)O)(CC2)CC3)c1` [Example 11, 3-(4-(3-Fluoro-5-isopropoxybenzyloxy)bicyclo[2.2.2]octan-1-yl)propanoic acid], the response was half-maximal at 870 nM (EC50). Compared with the last compound, the EC50 is about 3.1-fold lower.

`CC1(C)Cc2cc(Cl)cc(COC34CCC(CCC(=O)O)(CC3)CC4)c2O1` [Example 1, 3-(4-((5-Chloro-2,2-dimethyl-2,3-dihydrobenzofuran-7-yl)methoxy)bicyclo[2.2.2]octan-1-yl)propanoic acid] displayed an EC50 of 610 nM.

As for `Cc1cc(COC23CCC(CCC(=O)O)(CC2)CC3)n(-c2ccc(Cl)cc2)n1` [Example 4, 3-(4-((1-(4-Chlorophenyl)-3-methyl-1H-pyrazol-5-yl)methoxy)bicyclo[2.2.2]octan-1-yl)propanoic acid], the concentration giving a half-maximal response (EC50) stood at 2740 nM.

`O=C(O)CCC12CCC(OCc3ccccc3Oc3ccccc3)(CC1)CC2` [Example 6, 3-(4-(2-Phenoxy-benzyloxy)bicyclo[2.2.2]octan-1-yl)propanoic acid] gave a concentration giving a half-maximal response (EC50) of 400 nM.

Take `O=C(O)CCC12CCC(OCc3cc(F)ccc3Oc3ccccc3)(CC1)CC2` [Example 9, 3-(4-(5-Fluoro-2-phenoxybenzyloxy)bicyclo[2.2.2]octan-1-yl)propanoic acid]: the EC50 was 280 nM.

`COc1cccc(COC23CCC(CCCC(=O)O)(CC2)CC3)c1` [Example 7, 4-(4-(3-Methoxy-benzyloxy)bicyclo[2.2.2]octan-1-yl)butanoic acid] had a concentration giving a half-maximal response (EC50) of 6910 nM.

`CC1(C)Cc2cccc(OCC34CCC(CCC(=O)O)(CC3)CC4)c2O1` [Example 14, 3-(4-(((2,2-Dimethyl-2,3-dihydrobenzofuran-7-yl)oxy)methyl)bicyclo[2.2.2]octan-1-yl)propanoic acid] returned a 50% effective concentration (EC50) of 900 nM.

For the compound `O=C(O)CCC12CCC(OCc3cc(F)cc(Oc4ccc(F)cc4)c3)(CC1)CC2` [Example 12, 3-(4-(3-Fluoro-5-(4-fluorophenoxy)benzyloxy)bicyclo[2.2.2]octan-1-yl)propanoic acid], the EC50 amounted to 540 nM.

Turning to `CC1(C)Cc2cc(Cl)cc(COC34CCC(CCCC(=O)O)(CC3)CC4)c2O1` [Example 2, 4-(4-((5-Chloro-2,2-dimethyl-2,3-dihydrobenzofuran-7-yl)methoxy)bicyclo[2.2.2]octan-1-yl)butanoic acid], the concentration for a half-maximal effect (EC50) came out at 2470 nM. Against the preceding compound, the EC50 is about 4.6-fold higher.

As for `O=C(O)COCC12CCC(OCc3cccc(Oc4ccccc4)c3)(CC1)CC2` [Example 10, 2-((4-(3-Phenoxybenzyloxy)bicyclo[2.2.2]octan-1-yl)methoxy)acetic acid], the midpoint of the response, the EC50, lay at 680 nM. Compared with the last compound, the EC50 is about 3.6-fold lower.

`O=C(O)CCC12CCC(OCc3cc(F)cc(Oc4ccccc4)c3)(CC1)CC2` [Example 8, 3-(4-(3-Fluoro-5-phenoxy-benzyloxy)bicyclo [2.2.2]octan-1-yl)propanoic acid] displayed a concentration for a half-maximal effect (EC50) of 270 nM.
